Converted amounts (≈) assume the structure as drawn.

One data set concerns the target T1, COX-1 (Mus musculus, UniProt P22437).
T1 sequence (P22437 27-602): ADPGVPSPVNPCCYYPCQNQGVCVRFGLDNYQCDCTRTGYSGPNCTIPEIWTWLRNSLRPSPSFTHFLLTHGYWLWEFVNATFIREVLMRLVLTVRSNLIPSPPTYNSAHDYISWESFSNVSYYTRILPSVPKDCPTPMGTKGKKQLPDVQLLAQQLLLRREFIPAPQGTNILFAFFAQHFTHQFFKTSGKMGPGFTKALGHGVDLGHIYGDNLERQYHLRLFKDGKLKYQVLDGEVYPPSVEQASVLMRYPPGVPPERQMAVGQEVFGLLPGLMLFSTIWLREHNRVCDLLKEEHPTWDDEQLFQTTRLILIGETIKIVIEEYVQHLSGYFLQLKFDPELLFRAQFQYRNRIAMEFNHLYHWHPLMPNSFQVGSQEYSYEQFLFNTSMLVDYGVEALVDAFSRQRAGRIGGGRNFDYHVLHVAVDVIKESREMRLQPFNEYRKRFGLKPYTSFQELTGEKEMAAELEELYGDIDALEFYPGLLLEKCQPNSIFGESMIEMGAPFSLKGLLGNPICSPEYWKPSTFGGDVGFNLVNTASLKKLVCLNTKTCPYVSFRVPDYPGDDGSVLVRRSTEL
Briefly: Evaluation of COX-1 activity: PGE2 formation in mouse peritoneal macrophages without aspirin and LPS treatment. The class given is cell-based. As to conditions: for IC50: read-out: IC50, μg/ml COX-1 (converted). Here is the method: (§1) Evaluation of in vitro COX-2 and COX-1 Activity [J. Pharmacol. Exp. Ther. 166, 96 (1969)]
(§2) The abdominal skin of a C57BL/6 mouse was sanitized with 70% aqueous ethanol, and was removed without damaging the peritoneum. 5 ml of cold phosphate buffer solution (PBS) was then injected into the abdominal cavity. After a minute, the peritoneal fluid containing the macrophages was collected using a syringe and a needle. The collected fluid was centrifuged for 5 min at 1500 rpm to afford pellets of cells. The pellets were then dispersed in the RPMI-1640 culture medium containing 100 units/ml penicillin and 100 μg/ml streptomycin.
(§3) The pellets dispersed as above were treated with 500 μM aspirin in order to knock out the activity of the COX-1 enzymes in the cells. The suspension was then diluted with the RPMI-1640 medium to contain 1×10^6 cells/ml. 100 μl of the suspension was added to each well of a 96-well ELISA plate. Then the plate was incubated for 2 hrs at 37° C. under 5% CO2 in order to fix the macrophages onto the plate. The cells, which were not fixed onto the plate were removed by washing with PBS two times. The purity of macrophages obtained thereby was confirmed by differential counting. The RPMI-1640 medium containing 3% fetal bovine serum albumin was added to each well of the plate, which was followed by stimulation with 10 μg/ml lipopolysaccharide (LPS). Usually 5×10^5 cells/ml were present by this preparation. The LPS-treated suspensions were incubated for 16 hours at 37° C. under 5% CO2 to induce COX-2. Then the culture medium was removed and the macrophages were washed two times with PBS. Then 130 μl RPMI-1640 culture medium was added to each well and the macrophage solutions were incubated at 37° C. for 10 minutes, which was followed by the treatment with 10 μM arachidonic acid and an appropriate amount of compounds of this invention. The plate was incubated for another 10 minutes. The upper solution was collected using a micropipette and was subjected to determination of PGE2 amount in the solution. The amount of PGE2 present in the collected solution was determined either by a known radio-immuno assay or by a known enzyme-immunoassay [Methods in Enzymol. 86, 258 (1982); Methods in Enzymol. 187, 24 (1990)]. The extent of COX-2 inhibition by a compound of the present invention was calculated by assuming, that the amount of PGE2 formed with the treatment of 10 μg/ml arachidonic acid was used is the maximum possible amount of PGE2, and that the amount of PGE2 formed without the treatment of arachidonic acid is the minimum possible amount of PGE2.
In the evaluation of COX-1 inhibitory activity by a compound of the present invention, the same procedures employed for evaluation of COX-2 activity were employed, except omitting the following two steps: 1) the treatment with aspirin for knockout of COX-1 activity and 2) treatment with LPS for induction of COX-2.
(§4) In order to determine IC50 for a compound of this invention, enzymatic activities were measured at multiple concentrations of compounds of this invention around IC50 of the compound. Usually enzymatic activities at 4˜5 concentrations were measured to calculate out IC50 for a compound of this invention.

The target in a further data set is T2, COX-2 (Mus musculus, UniProt Q05769).
T2 sequence (Q05769 18-604): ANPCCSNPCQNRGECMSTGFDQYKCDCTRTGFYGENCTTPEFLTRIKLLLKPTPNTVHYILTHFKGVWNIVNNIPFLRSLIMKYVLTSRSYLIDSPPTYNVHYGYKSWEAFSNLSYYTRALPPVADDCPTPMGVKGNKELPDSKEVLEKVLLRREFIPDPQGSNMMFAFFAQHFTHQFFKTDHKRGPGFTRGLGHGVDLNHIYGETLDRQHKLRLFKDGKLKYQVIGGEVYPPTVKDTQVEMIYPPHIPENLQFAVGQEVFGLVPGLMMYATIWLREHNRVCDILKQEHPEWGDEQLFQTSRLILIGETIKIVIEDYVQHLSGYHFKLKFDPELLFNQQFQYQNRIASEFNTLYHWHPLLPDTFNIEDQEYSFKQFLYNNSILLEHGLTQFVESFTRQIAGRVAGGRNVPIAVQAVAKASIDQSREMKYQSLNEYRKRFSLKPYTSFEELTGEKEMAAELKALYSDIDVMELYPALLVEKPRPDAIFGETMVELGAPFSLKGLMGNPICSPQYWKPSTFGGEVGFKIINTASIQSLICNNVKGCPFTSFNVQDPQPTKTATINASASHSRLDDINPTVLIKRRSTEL
Briefly: Evaluation of COX-2 activity: PGE2 formation in aspirin-treated, LPS-stimulated mouse peritoneal macrophages. The data set is classed as cell-based. As to conditions: for IC50: read-out: IC50, μg/ml COX-2 (converted). Here is the method: as §1, §2
as §3, with “The purity of macrophages obtained thereby was confirmed by differential counting.” left out, “Usually 5×10^5 cells/ml were present by this preparation.” left out
as §4

For `CC1(C)OC(c2ccc(S(C)(=O)=O)cc2)=C(c2ccsc2)C1=O` [Example 17, 2,2-Dimethyl-5-{4-(methylsulfonyl)phenyl}4-(3-thienyl)-3(2H)-furanone], the “IC50, μg/ml COX-1” value on COX-1 turned out to be 30 µg/mL (≈ 86.1 µM). The “IC50, μg/ml COX-2” value against COX-2 was determined as 0.2 µg/mL (≈ 0.574 µM).
The like results for `CC1(C)OC(c2ccc(S(C)(=O)=O)cc2)=C(c2ccco2)C1=O` [Example 18, 2,2-Dimethyl-4-(2-furanyl)-5-{4-(methylsulfonyl)phenyl}-3(2H)-furanone] were, in that order, 30 µg/mL (≈ 90.3 µM) and 0.2 µg/mL (≈ 0.602 µM).
In the case of `COc1ccc(C2=C(c3ccc(S(N)(=O)=O)cc3)OC(C)(C)C2=O)cc1OC` [Example 24, 5-{4-(Aminosulfonyl)phenyl}-4-{3,4-(dimethoxy)phenyl}-2,2-dimethyl 3(2H)-furanone], the “IC50, μg/ml COX-1” value at COX-1 was determined as 6.97 µg/mL (≈ 17.3 µM). The “IC50, μg/ml COX-2” value against COX-2 is 0.034 µg/mL (≈ 0.0843 µM).
For `CCC1(C)OC(c2ccc(S(C)(=O)=O)cc2)=C(c2cccnc2)C1=O` (stereo not shown) [Example 36, 2-Ethyl-2-methyl-5-{4-(methylsulfonyl)phenyl}-4-(3-pyridyl)-3(2H)-furanone], in that order: 50 µg/mL (≈ 140 µM) and 0.2 µg/mL (≈ 0.56 µM).
Turning to `CCC1(CC)OC(c2ccc(S(C)(=O)=O)cc2)=C(c2ccc(C(C)=O)cc2)C1=O` [Example 49, 4-(4-Acetylphenyl)-2,2-diethyl-5-{4-(methylsulfonyl)phenyl}-3(2H)-furanone], the “IC50, μg/ml COX-1” value against COX-1 was 30 µg/mL (≈ 72.7 µM). Besides, on COX-2, the “IC50, μg/ml COX-2” value came out at 0.3 µg/mL (≈ 0.727 µM).
Take `CCC1(CC)OC(c2ccc(S(C)(=O)=O)cc2)=C(c2ccc(OC)c(F)c2)C1=O` [Example 50, 2,2-Diethyl-4-(3-fluoro-4-methoxyphenyl)-5-{4-(methylsulfonyl)phenyl}-3(2H)-furanone]: the “IC50, μg/ml COX-1” value against COX-1 is 20 µg/mL (≈ 47.8 µM). Also, the “IC50, μg/ml COX-2” value on COX-2 stood at 0.03 µg/mL (≈ 0.0717 µM).
For the compound `CS(=O)(=O)c1ccc(C2=C(c3ccccc3)C(=O)C3(CCCC3)O2)cc1` [Example 53, 2-{(4-Methylsulfonyl)phenyl}-3phenyl-1-oxa-spiro[4,4]non-2-en-4-one], the “IC50, μg/ml COX-1” value against COX-1 came out at 5 µg/mL (≈ 13.6 µM). The “IC50, μg/ml COX-2” value against COX-2 is 0.03 µg/mL (≈ 0.0814 µM).
Turning to `CC(C)c1ccc(C2=C(c3ccc(S(C)(=O)=O)cc3)OC3(CCCC3)C2=O)cc1` [Example 54, 3-(4-Isopropylphenyl)-2-{4-(methylsulfonyl)phenyl}-1-oxa-spiro[4,4]non-2-en-4-one], the “IC50, μg/ml COX-2” value on COX-2 turned out to be 0.05 µg/mL (≈ 0.122 µM).
For the compound `CC1(C)OC(c2ccc(S(C)(=O)=O)cc2)=C(c2ccccc2Cl)C1=O` [Example 69], the melting point lay within 100 to 103 °C. On COX-1, the “IC50, μg/ml COX-1” value stood at 50 µg/mL (≈ 133 µM).
The like results for `CC1(C)OC(c2ccc(S(C)(=O)=O)cc2)=C(c2ccc(F)c(F)c2)C1=O` [Example 80] were, in that order, 162 °C and 5 µg/mL (≈ 13.2 µM).
Take `COc1cccc(C2=C(c3ccc(S(C)(=O)=O)cc3)OC(C)(C)C2=O)c1` [Example 95]: the “IC50, μg/ml COX-1” value at COX-1 amounted to 30 µg/mL (≈ 80.5 µM). Further, the “IC50, μg/ml COX-2” value against COX-2 stood at 0.1 µg/mL (≈ 0.268 µM).
As for `CC(O)c1ccc(C2=C(c3ccc(S(C)(=O)=O)cc3)OC(C)(C)C2=O)cc1` (stereo not shown) [Example 111, 2,2-Dimethyl-4-{4-(1-hydroxyethyl)phenyl}-5-{4-(methylsulfonyl)phenyl}-3(2H)-furanone], at COX-1, the “IC50, μg/ml COX-1” value amounted to 50 µg/mL (≈ 129 µM). Also, the “IC50, μg/ml COX-2” value at COX-2 was found to be 0.3 µg/mL (≈ 0.776 µM).
The like results for `CC1(C)OC(c2ccc(S(C)(=O)=O)cc2)=C(c2cccs2)C1=O` [Example 113] were, in that order, 3 µg/mL (≈ 8.61 µM) and 0.03 µg/mL (≈ 0.0861 µM).
The like results for `CSc1ccc(C2=C(c3cccc(Cl)c3)C(=O)C(C)(C)O2)cc1` [Example 168, 4-(3-chlorophenyl)-2,2-dimethyl-5-{4-(methylthio)phenyl}-3(2H)-furanone] were, in that order, 3 µg/mL (≈ 8.7 µM) and 0.5 µg/mL (≈ 1.45 µM).
Regarding `CCC1(C)OC(c2ccc(S(C)(=O)=O)cc2)=C(c2cccc(OC)c2)C1=O` (stereo not shown) [Example 200], the IC50 at COX-1 is 77.6 µM; at COX-2, 0.776 µM.
Turning to `CCC1(C)OC(c2ccc(S(C)(=O)=O)cc2)=C(c2cccc(C(C)C)c2)C1=O` (stereo not shown) [Example 201], the results for the IC50 at COX-1 and at COX-2 were 50.2 µM and 0.251 µM, respectively.
The like results for `CCCc1ccc(C2=C(c3ccc(S(C)(=O)=O)cc3)OC(C)(CC)C2=O)cc1` (stereo not shown) [Example 202] were, in that order, 7.53 µM and 0.0753 µM.
In the case of `CCC1(C)OC(c2ccc(S(C)(=O)=O)cc2)=C(c2ccc(C)s2)C1=O` (stereo not shown) [Example 225], at COX-1, the “IC50, μg/ml COX-1” value was 3 µg/mL (≈ 7.97 µM). Also, at COX-2, the “IC50, μg/ml COX-2” value was 0.03 µg/mL (≈ 0.0797 µM).
For `CS(=O)(=O)c1ccc(C2=C(c3cccc(F)c3)C(=O)C3(CCOCC3)O2)cc1` [Example 261, 3-(3-Fluorophenyl)-2-{4-(methylsulfonyl)phenyl}-1,8-dioxa-spiro[4,5]dec-2-en-4-one], in that order: 300 µg/mL (≈ 745 µM) and 1 µg/mL (≈ 2.48 µM).

Broadly, the melting point is the temperature of the solid-liquid transition.

These data come from patent US6492416B1, “4,5-diaryl-3(2H)-furanone derivatives as cyclooxygenase-2 inhibitors” (Pacific Corporation, priority 1999, dated 2002).
